The values that follow come from patent US20260265195A1, “SARM1 MODULATORS, PREPARATIONS, AND USES THEREOF” (SIRONAX LTD, priority 2022, published 2026).

SMILES strings stand for the structures.

The assay has as its target T1, SARM1 (50-724) (Homo sapiens, UniProt Q6SZW1).
T1 construct: Purified SARM1 (50-724) with a final concentration of 2 nM
T1 sequence (Q6SZW1 50-724): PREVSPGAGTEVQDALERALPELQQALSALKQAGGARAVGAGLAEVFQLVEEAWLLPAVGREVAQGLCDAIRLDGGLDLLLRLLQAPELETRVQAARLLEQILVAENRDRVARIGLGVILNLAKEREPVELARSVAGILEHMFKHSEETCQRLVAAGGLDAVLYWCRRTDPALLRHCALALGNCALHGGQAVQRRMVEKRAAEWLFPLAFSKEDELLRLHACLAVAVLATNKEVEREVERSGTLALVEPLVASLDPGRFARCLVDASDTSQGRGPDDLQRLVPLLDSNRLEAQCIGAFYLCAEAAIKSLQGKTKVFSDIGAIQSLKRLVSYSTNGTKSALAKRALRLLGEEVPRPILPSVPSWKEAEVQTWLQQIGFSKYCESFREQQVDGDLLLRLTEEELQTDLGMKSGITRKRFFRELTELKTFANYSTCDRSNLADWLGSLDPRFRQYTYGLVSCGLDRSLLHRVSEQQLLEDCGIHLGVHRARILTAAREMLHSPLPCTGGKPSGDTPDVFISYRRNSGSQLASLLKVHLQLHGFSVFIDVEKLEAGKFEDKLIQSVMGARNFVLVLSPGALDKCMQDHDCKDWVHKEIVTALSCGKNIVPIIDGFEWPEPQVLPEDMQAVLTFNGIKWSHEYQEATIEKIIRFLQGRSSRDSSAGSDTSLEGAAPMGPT
In words: SARM1 (50-724) enzymatic assay (NMN-activated NAD+ hydrolysis, LC-MS/MS readout). The format is biochemical. Conditions: purified SARM1 (50-724) 2 nM, 200 μM NMN activator, 100 μM NAD+ substrate, 1 h at room temperature, read-out: IC50 (SARM1 inhibitory activity). The gist of the method:
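NMN-activated NAD+ hydrolysis: compound pre-incubated 15 min at room temperature with 2 nM SARM1 (50-724) at 1% DMSO in DPBS; 100 μM NAD+ plus 200 μM NMN added and reacted 1 h at RT. Acetonitrile quench, LC-MS/MS readout.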
Consider `CNC(=O)CN(C(=O)c1nc2cc(C(F)(F)F)ccc2[nH]1)c1cccc(Cl)c1Cl` [Compound 182, N-(2,3-dichlorophenyl)-N-(2-(methylamino)-2-oxoethyl)-5-(trifluoromethyl)-1H-benzo[d]imidazole-2-carboxamide], for which the IC50 is not above 100 nM.

As to `CNCCN(C(=O)c1nc2cc(C)ccc2[nH]1)C1CCCC1` [Compound 63, N-cyclopentyl-5-methyl-N-(2-(methylamino)ethyl)-1H-benzo[d]imidazol-2-carboxamide], the IC50 was not below 1000 nM.

As for `Cc1ccc2[nH]c(C(=O)N(C)c3cc(F)cc(F)c3)c(CO)c2c1` [Compound 19, N-(3,5-difluorophenyl)-3-(hydroxymethyl)-N,5-dimethyl-1H-indole-2-carboxamide], the half-inhibitory concentration (IC50) was not below 1000 nM.

On to `Cc1ccc(N(C)C(=O)c2[nH]c3ccc(C)cc3c2CO)cc1` [Compound 44, 3-(hydroxymethyl)-N,5-dimethyl-N-(p-tolyl)-1H-indole-2-carboxamide], for which the IC50 was not below 1000 nM.

For the compound `Cc1ccc2[nH]c(C(=O)N3CCCCC3)c(CNc3ccccn3)c2c1` [Compound 87, (5-methyl-3-((pyridin-2-ylamino)methyl)-1H-indol-2-yl)(piperidin-1-yl)methanone], the IC50 is not below 1000 nM.

For `Cc1ccc2[nH]c(C(=O)N(C)C3CCCC3)c(CNc3ncco3)c2c1` [Compound 80, N-cyclopentyl-N,5-dimethyl-3-((oxazol-2-ylamino)methyl)-1H-indole-2-carboxamide], the IC50 was not above 100 nM.

As for `Cc1c(Cl)cncc1N(CC1(F)COC1)C(=O)c1nc2cc(C(F)(F)F)ccc2[nH]1` [Compound 184, N-(5-chloro-4-methylpyridin-3-yl)-N-((3-fluorooxetan-3-yl)methyl)-5-(trifluoromethyl)-1H-benzo[d]imidazole-2-carboxamide], the IC50 was 101 to 500 nM.

In the case of `Cc1c(Cl)cncc1N(CC(F)(F)CO)C(=O)c1nc2cc(C(F)(F)F)ccc2[nH]1` [Compound 133, N-(5-chloro-4-methylpyridin-3-yl)-N-(2,2-difluoro-3-hydroxypropyl)-5-(trifluoromethyl)-1H-benzo[d]imidazole-2-carboxamide], the IC50 was not above 100 nM.

Turning to `Cc1ccc2[nH]c(C(=O)N(C)c3cccc(Cl)c3Cl)c(C#N)c2c1` [Compound 69, 3-cyano-N-(2,3-dichlorophenyl)-N,5-dimethyl-1H-indole-2-carboxamide], the IC50 is not above 100 nM.

Turning to `O=C(c1nc2cc(C(F)(F)F)ccc2[nH]1)N(CCO)c1c(Cl)cccc1Cl` [Compound 159, N-(2,6-dichlorophenyl)-N-(2-hydroxyethyl)-5-(trifluoromethyl)-1H-benzo[d]imidazole-2-carboxamide], the IC50 was in the range of 101 to 500 nM.

As to `Cc1ccc2[nH]c(C(=O)N(C)C3CCCCC3)c(CNc3ccccn3)c2c1` [Compound 91, N-cyclohexyl-N,5-dimethyl-3-((pyridin-2-ylamino)methyl)-1H-indole-2-carboxamide], the IC50 lay in the range of 101 to 500 nM.

With `Cc1ccc2[nH]c(C(=O)N(CCO)c3cccc(Cl)c3Cl)c(C#N)c2c1` [Compound 71, 3-cyano-N-(2,3-dichlorophenyl)-N-(2-hydroxyethyl)-5-methyl-1H-indole-2-carboxamide], the IC50 is not above 100 nM.

Consider `CN(C(=O)c1nc2c(C#N)cccc2[nH]1)C1CCCC1` [Compound 95, 4-cyano-N-cyclopentyl-N-methyl-1H-benzo[d]imidazole-2-carboxamide], for which the IC50 is not below 1000 nM.

Take `Cc1ccc2[nH]c(C(=O)N(C)c3ccccc3Cl)c(CO)c2c1` [Compound 6, N-(2-chlorophenyl)-3-(hydroxymethyl)-N,5-dimethyl-1H-indole-2-carboxamide]: the IC50 was 101 to 500 nM.

Regarding `Cc1cccc(N(C)C(=O)c2nc3cc(C(F)(F)F)ccc3[nH]2)c1Cl` [Compound 125, N-(2-chloro-3-methylphenyl)-N-methyl-5-(trifluoromethyl)-1H-benzo[d]imidazole-2-carboxamide], the IC50 was not above 100 nM.

Regarding `CC(C)c1ccc2[nH]c(C(=O)N(C)C3CCCC3)c(CO)c2c1` [Compound 27, N-cyclopenty1-3-(hydroxymethyl)-5-isopropyl-N-methyl-1H-indole-2-carboxamide], the IC50 is 101 to 500 nM.

For `Cn1nc(N(CCO)C(=O)c2nc3cc(C(F)(F)F)ccc3[nH]2)c(Cl)c1Cl` [Compound 110, N-(4,5-dichloro-1-methyl-1H-pyrazol-3-yl)-N-(2-hydroxyethyl)-5-(trifluoromethyl)-1H-benzo[d]imidazole-2-carboxamide], the IC50 is not above 100 nM.

In the case of `CC1CCC(C)C1N(CCO)C(=O)c1nc2cc(C(F)(F)F)ccc2[nH]1` (stereo not shown) [Compound 102, N-(2,5-dimethylcyclopentyl)-N-(2-hydroxyethyl)-5-(trifluoromethyl)-1H-benzo[d]imidazole-2-carboxamide], the IC50 was not above 100 nM.

As to `Cc1ccc2[nH]c(C(=O)N(C)C3CCCC3)c(CNc3nc(C(N)=O)cs3)c2c1` [Compound 73, 2-(((2-(cyclopentyl(methyl)carbamoyl)-5-methyl-1H-indol-3-yl)methyl)amino)thiazole-4-carboxamide], the IC50 fell in the range of 101 to 500 nM.

Regarding `CN(C(=O)c1nc2c(C3COC3)cccc2[nH]1)C1CCCC1` [Compound 113, N-cyclopentyl-N-methyl-4-(oxetan-3-yl)-1H-benzo[d]imidazole-2-carboxamide], the IC50 is not below 1000 nM.

For the compound `COCCN(C(=O)c1nc2cc(C)ccc2[nH]1)C1CCCC1` [Compound 62, N-cyclopentyl-N-(2-methoxyethyl)-5-methyl-1H-benzo[d]imidazole-2-carboxamide], the IC50 was 101 to 500 nM.

In the case of `N#Cc1ccc(Cl)c(Cl)c1N(CCO)C(=O)c1nc2cc(C(F)(F)F)ccc2[nH]1` [Compound 115, N-(2,3-dichloro-6-cyanophenyl)-N-(2-hydroxyethyl)-5-(trifluoromethyl)-1H-benzo[d]imidazole-2-carboxamide], the IC50 was not above 100 nM.

Regarding `CC(C)(O)CN(C(=O)c1nc2cc(C(F)(F)F)ccc2[nH]1)c1cccc(Cl)c1Cl` [Compound 168, N-(2,3-dichlorophenyl)-N-(2-hydroxy-2-methylpropyl)-5-(trifluoromethyl)-1H-benzo[d]imidazole-2-carboxamide], the IC50 was not above 100 nM.

As for `O=C(c1nc2cc(C(F)(F)F)cc(F)c2[nH]1)N(CCO)c1cccc(Cl)c1Cl` [Compound 206], the IC50 was not above 100 nM.

On to `O=C(c1nc2cc(C3CC3)ccc2[nH]1)N(CCO)c1cccc(Cl)c1Cl` [Compound 190], for which the IC50 was not above 100 nM.

`O=C(c1nc2cc(C(F)(F)F)ccc2[nH]1)N(CC(F)(F)CO)c1ccc(F)c(F)c1Cl` [Compound 212, N-(2-chloro-3,4-difluorophenyl)-N-(2,2-difluoro-3-hydroxypropyl)-5-(trifluoromethyl)-1H-benzo[d]imidazole-2-carboxamide]: the concentration for half-maximal inhibition (IC50) is not above 100 nM.

In the case of `CC(C)(O)CCN(C(=O)c1nc2cc(C(F)(F)F)ccc2[nH]1)c1cccc(Cl)c1Cl` [Compound 198, N-(2,3-dichlorophenyl)-N-(3-hydroxy-3-methylbutyl)-5-(trifluoromethyl)-1H-benzo[d]imidazole-2-carboxamide], the IC50 is not above 100 nM.

With `O=C(c1nc2cc(C(F)(F)F)cc(F)c2[nH]1)N(c1cccc(F)c1Cl)C1CCS(=O)(=O)CC1` [Compound 130], the IC50 was not above 100 nM.

As for `CN(C(=O)c1[nH]c2ccc(C(F)(F)F)cc2c1CO)C1CCCC1` [Compound 28, N-cyclopentyl-3-(hydroxymethyl)-N-methyl-5-(trifluoromethyl)-1H-indole-2-carboxamide], the IC50 lay within 101 to 500 nM.

In the case of `CC(c1cn[nH]c1)c1ccc2[nH]c(C(=O)N(CCO)c3cccc(Cl)c3Cl)nc2c1` (racemic) [Compound 189], the IC50 is not above 100 nM.

With `Cc1ccc2[nH]c(C(=O)N(C)c3cccc(Cl)c3Cl)c(CNc3nc(C(N)=O)c(C(C)C)s3)c2c1` [Compound 74, 2-(((2-((2,3-dichlorophenyl)(methyl)carbamoyl)-5-methyl-1H-indol-3-yl)methyl)amino)-5-isopropylthiazole-4-carboxamide], the IC50 was not above 100 nM.

With `O=C(CN(C(=O)c1nc2cc(C(F)(F)F)ccc2[nH]1)c1cccc(Cl)c1Cl)N1CCC1` [Compound 202, N-(2-(azetidin-1-yl)-2-oxoethyl)-N-(2,3-dichlorophenyl)-5-(trifluoromethyl)-1H-benzo[d]imidazole-2-carboxamide], the IC50 is not above 100 nM.

In the case of `Cc1ccc2[nH]c(C(=O)N(C)c3cccc(C(F)(F)F)c3)c(CO)c2c1` [Compound 10, 3-(hydroxymethyl)-N,5-dimethyl-N-(3-(trifluoromethyl)phenyl)-1H-indole-2-carboxamide], the IC50 is not below 1000 nM.

As for `Cc1cccc(N(CCO)C(=O)c2nc3cc(C(F)(F)F)ccc3[nH]2)c1F` [Compound 172, N-(2-fluoro-3-methylphenyl)-N-(2-hydroxyethyl)-5-(trifluoromethyl)-1H-benzo[d]imidazole-2-carboxamide], the IC50 is 501 to 1000 nM.

A word on the IC50: it is the concentration needed to halve the response being measured.
